Measured values from patent US5013741A, “N-[substituted alkylidene]-1,2,3,4-tetrahydro-9-acridinamines useful for enhancing the cholinergic function in a mammal” (priority 1988, dated 1991).

What was measured:
[1] = tested on: Scopolamine Induced Memory Deficit; assay: Dark Avoidance Assay (scopolamine induced memory deficit reversal); format: in vivo; conditions: s.c., mice, retest after 24 hours
Experimental: In this assay mice are tested for their ability to remember an unpleasant stimulus for a period of 24 hours. A mouse is placed in a chamber that contains a dark compartment; a strong incadescent light drives it to the dark compartment,where an electric shock is administered through metal plates on the floor. The animal is removed from the testing apparatus and tested again, 24 hours later, for the ability to remember the electric shock.
If scopolamine, an anticholinergic that is known to cause memory impairment, is administered before an animal's initial exposure to the test chamber, the animal re-enters the dark compartment shortly after being placed in the test chamber 24 hours later. This effect of scopolamine is blocked by an active test compound, resulting in a greater interval before re-entry into the dark compartment.
The results for an active compound are expressed as the percent of a group of animals in which the effect of scopolamine is blocked, as manifested by an increased interval between being placed in the test chamber and re-entering the dark compartment.

acetylcholinesterase = assay: Acetylcholinesterase Inhibition Assay (photometric method of Ellman et al.); format: biochemical
Sequence of acetylcholinesterase (P22303 32-614): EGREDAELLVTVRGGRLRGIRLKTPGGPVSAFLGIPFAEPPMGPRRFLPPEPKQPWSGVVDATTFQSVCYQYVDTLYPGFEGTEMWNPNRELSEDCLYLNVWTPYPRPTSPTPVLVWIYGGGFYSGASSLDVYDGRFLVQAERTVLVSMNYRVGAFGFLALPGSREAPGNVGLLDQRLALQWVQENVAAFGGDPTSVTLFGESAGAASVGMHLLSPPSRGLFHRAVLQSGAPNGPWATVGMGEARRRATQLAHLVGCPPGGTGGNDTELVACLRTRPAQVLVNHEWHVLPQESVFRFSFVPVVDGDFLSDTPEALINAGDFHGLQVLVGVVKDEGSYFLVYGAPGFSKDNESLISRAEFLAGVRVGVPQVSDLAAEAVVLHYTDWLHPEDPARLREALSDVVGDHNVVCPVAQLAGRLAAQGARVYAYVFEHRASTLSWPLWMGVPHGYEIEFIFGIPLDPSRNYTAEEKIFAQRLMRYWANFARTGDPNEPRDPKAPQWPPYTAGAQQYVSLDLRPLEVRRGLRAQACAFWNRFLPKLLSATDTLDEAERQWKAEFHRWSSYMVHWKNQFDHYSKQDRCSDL

Compound | % of Animals with Scopolamine Induced Memory Deficit Reversal ([1]; 0.63 mg/kg of body weight) [%] | IC50 (acetylcholinesterase) [nM] | % of Animals with Scopolamine Induced Memory Deficit Reversal ([1]; 0.31 mg/kg of body weight) [%] | % of Animals with Scopolamine Induced Memory Deficit Reversal ([1]; 5.0 mg/kg of body weight) [%]
Nc1c2c(nc3ccccc13)CCCC2 [Tacrine, 9-amino-1,2,3,4-tetrahydroacridine, reference compound] | 13 |  |  | 
Oc1ccccc1C=Nc1c2c(nc3ccccc13)CCCC2 [9-Amino-N-[(2-hydroxyphenyl)methylene]-1,2,3,4-tetrahydroacridine, hemi-fumarate] |  | 5100 |  | 
C(=Nc1c2c(nc3ccccc13)CCCC2)c1ccccc1 [N-Phenylmethylene-1,2,3,4-tetrahydro-9-acridinamine] |  | 230 | 27 | 60
CC[C@@H]1C(=O)OC[C@@H]1Cc1cncn1C [Pilocarpine, reference compound] |  |  |  | 13
